{"source": "patent US20240358692A1", "about": "“TREATMENT OF SCLERODERMA” (Aisa Pharma, Inc., priority 2023, published 2024)", "tested_on": "participants with SSc-RP", "test": "SHAQ - Visual Analog Scale - Pain", "format": "in vivo, human", "conditions": "for % change in Pain: SHAQ, mITT Part A", "from_the_text": "The standard, validated, patient reported outcome measures tool for SSc patients, the Scleroderma Health Assessment Questionnaire (SHAQ), will be used to assess the participant qualify of life. Details are attached in the Appendix. The participant quality of life will be scored, and a disability index calculated for each questionnaire completed by the patient at Screening and each in-clinic visit. The absolute change in participant quality of life from baseline to the end of each dosing period will be calculated similar to frequency data as before.\nThe standard, validated, patient reported outcome measures tool for SSc patients, the SHAQ, was collected at the time points specified in the study schedules (FIG. 2 and FIGS. 4A and 4B) to assess the participant's quality of life. The SHAQ included a Raynaud's VAS that will also be reported separately.\nPain on the SHAQ outcome measure on the first line in table F is a composite of all pain experienced in patients with SSc, comprising joint pain, back pain, headache, odynophagia, skin ulcer related discomfort, Raynaud's, and neuropathic pain. Aisa Pharma believes, based on the biologic attributes and actions of cilnidipine that differ from most dihydropyridine calcium channel antagonists that cilnidipine might have direct analgesic effects in certain pain conditions and in fact has been designated to receive evaluation through the […] Preclinical Pain Screening Platform Program to investigate the drug in multiple in vitro and in vivo preclinical models of pain that are validated and predictive of effects in man.", "key": {"[1]": {"conditions": "Any Cilnidipine (N = 17), Day 12, PP Population, Part A"}, "[2]": {"conditions": "Cilnidipine 10 mg, SSc patients, PP, Part A"}, "[3]": {"conditions": "Cilnidipine 20 mg, SSc patients, PP, Part A"}, "[4]": {"conditions": "Modified ITT Population-Part A, Day 12, dose cilnidipine 10 mg, tadalafil 5 mg, alone or combined as labelled"}, "[5]": {"conditions": "Modified ITT Population-Part A, Day 12, dose cilnidipine 20 mg, tadalafil 5 mg, alone or combined as labelled"}, "[6]": {"conditions": "Pooled Cilnidipine (N = 8), Day 12, PP Population, Part A"}, "[7]": {"conditions": "pooled Cilnidipine 10 mg and Cilnidipine 10 mg + Tadalafil 5 mg"}, "[8]": {"conditions": "pooled Cilnidipine 20 mg and Cilnidipine 20 mg + Tadalafil 5 mg"}}, "data": [{"smiles": "COCCOC(=O)C1=C(C)NC(C)=C(C(=O)OC/C=C/c2ccccc2)C1c1cccc([N+](=O)[O-])c1", "note": "(stereo not shown) [Cilnidipine]", "values": [{"measurement": "SHAQ Visual Analogue Scale - Pain, Change from Baseline, Mean (SD)", "setting": "[1]", "result": "−0.575 (1.0318)"}, {"measurement": "SHAQ Visual Analogue Scale - Pain, Change from Baseline, Median", "setting": "[1]", "result": "−0.600"}, {"measurement": "SHAQ Visual Analogue Scale - Pain, In-Clinic Visit (Day 12), Mean (SD)", "setting": "[1]", "result": "2.476 (1.7312)"}, {"measurement": "SHAQ Visual Analogue Scale - Pain, In-Clinic Visit (Day 12), Median", "setting": "[1]", "result": 2.200}, {"measurement": "SHAQ Visual Analogue Scale - Pain, Percent Change from Baseline, Mean (SD)", "setting": "[1]", "result": "−22.77 (31.937) %"}, {"measurement": "SHAQ Visual Analogue Scale - Pain, Percent Change from Baseline, Median", "setting": "[1]", "result": "−22.58", "unit": "%"}, {"measurement": "SHAQ VAS Pain, Change from Baseline, Max", "setting": "[2]", "result": 0.30}, {"measurement": "SHAQ VAS Pain, Change from Baseline, Mean", "setting": "[2]", "result": "−0.100"}, {"measurement": "SHAQ VAS Pain, Change from Baseline, Median", "setting": "[2]", "result": 0.000}, {"measurement": "SHAQ VAS Pain, Change from Baseline, Min", "setting": "[2]", "result": "−0.70,"}, {"measurement": "SHAQ VAS Pain, Change from Baseline, Q1", "setting": "[2]", "result": "−0.350,"}, {"measurement": "SHAQ VAS Pain, Change from Baseline, Q3", "setting": "[2]", "result": 0.150}, {"measurement": "SHAQ VAS Pain, Day 12, Max", "setting": "[2]", "result": 3.60}, {"measurement": "SHAQ VAS Pain, Day 12, Mean", "setting": "[2]", "result": 1.875}, {"measurement": "SHAQ VAS Pain, Day 12, Median", "setting": "[2]", "result": 1.950}, {"measurement": "SHAQ VAS Pain, Day 12, Min", "setting": "[2]", "result": "0.00,"}, {"measurement": "SHAQ VAS Pain, Day 12, Q1", "setting": "[2]", "result": "0.500,"}, {"measurement": "SHAQ VAS Pain, Day 12, Q3", "setting": "[2]", "result": 3.250}, {"measurement": "SHAQ VAS Pain, Percent Change from Baseline, Max", "setting": "[2]", "result": 11.5}, {"measurement": "SHAQ VAS Pain, Percent Change from Baseline, Mean", "setting": "[2]", "result": "−9.88"}, {"measurement": "SHAQ VAS Pain, Percent Change from Baseline, Median", "setting": "[2]", "result": 0.00}, {"measurement": "SHAQ VAS Pain, Percent Change from Baseline, Min", "setting": "[2]", "result": "−41.2,"}, {"measurement": "SHAQ VAS Pain, Percent Change from Baseline, Q1", "setting": "[2]", "result": "−41.18,"}, {"measurement": "SHAQ VAS Pain, Percent Change from Baseline, Q3", "setting": "[2]", "result": 11.54}, {"measurement": "% change in Pain", "setting": "Cilnidipine 20 mg (n = 3)", "result": "−53", "unit": "%"}, {"measurement": "SHAQ VAS Pain, Change from Baseline, Max", "setting": "[3]", "result": 0.70}, {"measurement": "SHAQ VAS Pain, Change from Baseline, Mean", "setting": "[3]", "result": "−0.650"}, {"measurement": "SHAQ VAS Pain, Change from Baseline, Min", "setting": "[3]", "result": "−2.00,"}, {"measurement": "SHAQ VAS Pain, Change from Baseline, Q1", "setting": "[3]", "result": "−1.400,"}, {"measurement": "SHAQ VAS Pain, Change from Baseline, Q3", "setting": "[3]", "result": 0.100}, {"measurement": "SHAQ VAS Pain, Day 12, Max", "setting": "[3]", "result": 4.30}, {"measurement": "SHAQ VAS Pain, Day 12, Mean", "setting": "[3]", "result": 1.875}, {"measurement": "SHAQ VAS Pain, Day 12, Median", "setting": "[3]", "result": 1.400}, {"measurement": "SHAQ VAS Pain, Day 12, Min", "setting": "[3]", "result": "0.40,"}, {"measurement": "SHAQ VAS Pain, Day 12, Q1", "setting": "[3]", "result": "0.550,"}, {"measurement": "SHAQ VAS Pain, Day 12, Q3", "setting": "[3]", "result": 3.200}, {"measurement": "SHAQ VAS Pain, Percent Change from Baseline, Mean", "setting": "[3]", "result": "−34.56"}, {"measurement": "SHAQ VAS Pain, Percent Change from Baseline, Min", "setting": "[3]", "result": "−55.6,"}, {"measurement": "SHAQ VAS Pain, Percent Change from Baseline, Q1", "setting": "[3]", "result": "−54.44,"}, {"measurement": "SHAQ VAS Pain, Percent Change from Baseline, Q3", "setting": "[3]", "result": "−14.67"}, {"measurement": "Visual Analog Scale-Pain, Change from Baseline, Mean", "setting": "[4]", "result": "−0.100"}, {"measurement": "Visual Analog Scale-Pain, Change from Baseline, Median", "setting": "[4]", "result": 0.000}, {"measurement": "Visual Analog Scale-Pain, Percent Change from Baseline, Median", "setting": "[4]", "result": 0.00, "unit": "%"}, {"measurement": "Visual Analog Scale-Pain, Change from Baseline, Mean", "setting": "[5]", "result": "−1.100"}, {"measurement": "Visual Analog Scale-Pain, Change from Baseline, Median", "setting": "[5]", "result": "−0.800"}, {"measurement": "Visual Analog Scale-Pain, In Clinic Visit (Day 12), Median", "setting": "Modified ITT Population-Part A, dose cilnidipine 20 mg, tadalafil 5 mg, alone or combined as labelled", "result": 0.700}, {"measurement": "SHAQ Visual Analogue Scale - Pain, In-Clinic Visit (Day 12), Median", "setting": "Pooled Cilnidipine 10 mg and Cilnidipine 10 mg + Tadalafil 5 mg (N = 9), Day 12, PP Population, Part A", "result": 2.900}, {"measurement": "SHAQ Visual Analogue Scale - Pain, In-Clinic Visit (Day 12), Median", "setting": "Pooled Cilnidipine 20 mg and Cilnidipine 20 mg + Tadalafil 5 mg (N = 8), Day 12, PP Population, Part A", "result": 2.100}, {"measurement": "SHAQ Visual Analogue Scale - Pain, Change from Baseline, Mean (SD)", "setting": "[6]", "result": "−0.375 (0.8311)"}, {"measurement": "SHAQ Visual Analogue Scale - Pain, In-Clinic Visit (Day 12), Mean (SD)", "setting": "[6]", "result": "1.875 (1.5944)"}, {"measurement": "SHAQ Visual Analogue Scale - Pain, Percent Change from Baseline, Mean (SD)", "setting": "[6]", "result": "−23.98 (32.893) %"}, {"measurement": "% change in Pain", "setting": "Pooled Cilnidipine (n = 7)", "result": "−31", "unit": "%"}, {"measurement": "% Δ from baseline, VAS Pain median", "setting": "Pooled cilnidipine (n=6)", "result": "−45", "unit": "%"}, {"measurement": "SHAQ VAS-Pain (change)", "setting": "cilnidipine 20 mg", "result": "−1.1"}, {"measurement": "VAS Pain Change from Baseline Max", "setting": "[7]", "result": 0.60}, {"measurement": "VAS Pain Change from Baseline Mean", "setting": "[7]", "result": "−0.633"}, {"measurement": "VAS Pain Change from Baseline Median", "setting": "[7]", "result": "−0.700"}, {"measurement": "VAS Pain Change from Baseline Min", "setting": "[7]", "result": "−2.80,"}, {"measurement": "VAS Pain Change from Baseline Q1", "setting": "[7]", "result": "−1.100,"}, {"measurement": "VAS Pain Change from Baseline Q3", "setting": "[7]", "result": 0.000}, {"measurement": "VAS Pain Day 12 Max", "setting": "[7]", "result": 5.50}, {"measurement": "VAS Pain Day 12 Median", "setting": "[7]", "result": 2.900}, {"measurement": "VAS Pain Day 12 Min", "setting": "[7]", "result": "0.00,"}, {"measurement": "VAS Pain Day 12 Q1", "setting": "[7]", "result": "1.000,"}, {"measurement": "VAS Pain Day 12 Q3", "setting": "[7]", "result": 3.800}, {"measurement": "VAS Pain Percent Change from Baseline Max", "setting": "[7]", "result": 18.8, "unit": "%"}, {"measurement": "VAS Pain Percent Change from Baseline Mean", "setting": "[7]", "result": "−20.07", "unit": "%"}, {"measurement": "VAS Pain Percent Change from Baseline Median", "setting": "[7]", "result": "−21.87", "unit": "%"}, {"measurement": "VAS Pain Percent Change from Baseline Min", "setting": "[7]", "result": "−72.2, %"}, {"measurement": "VAS Pain Percent Change from Baseline Q1", "setting": "[7]", "result": "−37.46, %"}, {"measurement": "VAS Pain Percent Change from Baseline Q3", "setting": "[7]", "result": 5.77, "unit": "%"}, {"measurement": "VAS Pain Change from Baseline Max", "setting": "[8]", "result": 0.90}, {"measurement": "VAS Pain Change from Baseline Mean", "setting": "[8]", "result": "−0.700"}, {"measurement": "VAS Pain Change from Baseline Median", "setting": "[8]", "result": "−0.650"}, {"measurement": "VAS Pain Change from Baseline Min", "setting": "[8]", "result": "−2.00,"}, {"measurement": "VAS Pain Change from Baseline Q1", "setting": "[8]", "result": "−1.700,"}, {"measurement": "VAS Pain Change from Baseline Q3", "setting": "[8]", "result": "−0.100"}, {"measurement": "VAS Pain Day 12 Max", "setting": "[8]", "result": 5.30}, {"measurement": "VAS Pain Day 12 Mean", "setting": "[8]", "result": 2.000}, {"measurement": "VAS Pain Day 12 Median", "setting": "[8]", "result": 2.100}, {"measurement": "VAS Pain Day 12 Min", "setting": "[8]", "result": "0.40,"}, {"measurement": "VAS Pain Day 12 Q1", "setting": "[8]", "result": "0.700,"}]}]}
